Laboratory results reported in patent US11331368B2, “Angiotensin receptor agonists and uses thereof” (Monash University, priority 2017, dated 2022).
“Also recorded” adds a separate entry of the source. Like-named read-outs stand apart in the source and are kept apart here. Each block holds one molecule with its values, some of them ahead of it.

Key:
[1] = tested on: human cardiac fibroblasts; assay: AT1R and AT2R mRNA expression in human cardiac fibroblasts (qPCR); format: cell-based; details: 5 ng/ml for 72 hours
Procedure: FIG. 2: TGF-β1 differentially affects the mRNA expression of AT1R and AT2R in human cardiac fibroblasts. Quantitative qPCR data showing that both AT1R and AT2R are expressed in human cardiac fibroblasts. TGF-β1 (5 ng/ml for 72 hours) increased AT2R mRNA expression but not AT1R mRNA expression. Quantitative values were obtained from the threshold cycle (Ct) number. Target gene expression level was normalized against beta-actin mRNA expression for each sample and data was expressed relative to the control. Data expressed as mean±sem relative to untreated HCFs; *P<0.05 versus untreated control (t-test).

[2] = tested on: human cardiac fibroblasts; assay: Pro-fibrotic effect of Ang II in human cardiac fibroblasts; format: cell-based
Procedure: Commercially available human cardiac fibroblasts (HCF, Catalog #6300, Sciencell, Calif., USA) were grown in T75 flask maintained in an incubator at 37° C., 5% CO2. Complete media composition: M199 media (#11150-059, life technologies)+10% FBS (#10437-028, life technologies)+1% Fibroblast Growth Supplement-2 (#2382, ScienCell)+1% penicillin/streptomycin 10,000 U/ml antibiotics (#15140-122, Life Technologies). Fresh complete media was replenished every alternate day until culture reached 70% confluence in which media is replenished daily until it reached approximately 90% confluence in order to passage/subculture. To subculture, media was discarded and culture was rinsed with warm PBS. After which, culture was detached using warm 0.05% Trypsin+EDTA with gentle swirling of flask to make sure cells were not adherent to surface of flask. Trypsin was then neutralized with complete media and suspension was then transferred into a new falcon tube and centrifuged at 1000 rpm for 5 minutes. […]

human AT1R = molecular target: T1, human AT1R (Homo sapiens, UniProt P30556); assay: Competition radioligand binding (125I-Sar1-Ile8-AngII) in AT1R-transfected HEK-293 cells
T1 construct: expressed in transfected cells
T1 sequence (P30556 1-359): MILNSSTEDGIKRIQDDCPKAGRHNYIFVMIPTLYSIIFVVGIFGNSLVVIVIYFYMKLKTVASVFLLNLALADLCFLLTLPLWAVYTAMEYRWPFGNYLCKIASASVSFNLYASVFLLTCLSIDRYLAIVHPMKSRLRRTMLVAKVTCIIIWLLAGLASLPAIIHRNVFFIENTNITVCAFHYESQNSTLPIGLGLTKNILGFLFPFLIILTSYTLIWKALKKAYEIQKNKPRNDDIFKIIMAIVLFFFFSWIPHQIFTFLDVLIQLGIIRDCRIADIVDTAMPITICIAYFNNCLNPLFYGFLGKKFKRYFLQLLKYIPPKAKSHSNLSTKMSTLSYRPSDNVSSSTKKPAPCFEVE
Procedure: (§3) This will lead to the generation of IC50 values that determine the relative ability of test compounds to interact with both Angiotensin receptors.
(§4) Cells were grown to approximately 80% confluence before being re-plated into 48 well plates at 1×10^5 cells/well and grown for 48 hours at 37° C. for a whole cell competition binding assay. [125I]-Sar1Ile8Ang II at 50,000 cpm, incubated for 45 minutes at 37° C., in the absence or presence of unlabeled ligands, prepared in binding buffer (DMEM, 0.1% BSA), were used in the competition assays at concentrations ranging from 1 μM to 10 μM. For each experiment, each ligand concentration was tested in duplicate or triplicate, and each experiment was repeated at least 3 separate times. […] The ability of each ligand to inhibit specific binding of [125I]-Sar1Ile8Ang II was measured on a gamma counter with all counts corrected for NSB.

human AT2R = molecular target: T2, human AT2R (Homo sapiens, UniProt P50052); assay: Competition radioligand binding (125I-Sar1-Ile8-AngII) in AT2R-transfected HEK-293 cells; details: for binding at AT2R (displacement of 125I-Sar1-Ile8-AngII), in words: transfected HEK-293 cells
T2 construct: expressed in transfected cells
T2 sequence (P50052 1-363): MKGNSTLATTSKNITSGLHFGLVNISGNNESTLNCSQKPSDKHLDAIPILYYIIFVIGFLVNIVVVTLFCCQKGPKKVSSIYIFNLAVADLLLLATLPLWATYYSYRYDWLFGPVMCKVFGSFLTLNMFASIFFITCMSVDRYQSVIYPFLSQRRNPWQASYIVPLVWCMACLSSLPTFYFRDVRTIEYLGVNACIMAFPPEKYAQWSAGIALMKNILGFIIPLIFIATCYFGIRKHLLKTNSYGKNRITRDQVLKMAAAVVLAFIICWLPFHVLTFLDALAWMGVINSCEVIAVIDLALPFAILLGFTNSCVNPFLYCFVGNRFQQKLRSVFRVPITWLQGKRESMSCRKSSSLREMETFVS
Procedure: as §3, §4

[3] = tested on: human cardiac fibroblasts; assay: TGF-β1-induced collagen production in human cardiac fibroblasts (Western blot); format: cell-based; details: co-treated with TGF-β1 for 3 days, increasing concentrations up to 1 μM
Procedure: D) Human cardiac fibroblasts (HCFs) were treated with TGFβ1 to induce a pro-fibrotic phenotype state in cell culture, exemplified by increased collagen-1 production, measured by Western blot. HCFs were treated with TGFβ1 alone, or in the presence of an AT2R agonist for 3 days, and the ability of AT2R agonists to inhibit TGFβ1-induced collagen-1 production was measured.
Commercially available human cardiac fibroblasts (HCF, Catalog #6300, Sciencell, Calif., USA) were grown in T75 flask maintained in an incubator at 37° C., 5% CO2. Complete media composition: M199 media (#11150-059, life technologies)+10% FBS (#10437-028, life technologies)+1% Fibroblast Growth Supplement-2 (#2382, ScienCell)+1% penicillin/streptomycin 10,000 U/ml antibiotics (#15140-122, Life Technologies). Fresh complete media was replenished every alternate day until culture reached 70% confluence in which media is replenished daily until it reached approximately 90% confluence in order to passage/subculture. To subculture, media was discarded and culture was rinsed with warm PBS. After which, culture was detached using warm 0.05% Trypsin+EDTA with gentle swirling of flask to make sure cells were not adherent to surface of flask. Trypsin was then neutralized with complete media and suspension was then transferred into a new falcon tube and centrifuged at 1000 rpm for 5 minutes. Supernatant was discarded and pellet of cells were resuspended with 5 ml of complete media, followed by cell counting. For subculturing/passaging, 1 million HCFs are placed into a T75 flask. For Picrosirius Red (PSR) staining or immunofluorescence experiments, 100 k cells were loaded per well in a 24 well plate lined with round coverslips. […]
Once treatment is complete, cells were washed with warm PBS and detached using Accutase (A6964, Sigma), with 5 minutes incubation at 37° C. […] The supernatant (˜20 ul) was transferred to a new tube and protein concentrations were measured using Biorad Lowry protein assay. Protein quantification of respective markers were performed via standard western blot analysis. […]

[4] = tested on: male FVB/N mice on high salt diet, heart; assay: High salt (5%) diet intervention model, heart; format: in vivo, mouse
Procedure: (§1) C) In the intervention (or reversal) model, male FVB/N mice were treated with selective AT2Rs agonists after the establishment of cardiovascular disease using a high salt diet, in order to reverse cardiovascular pathologies. In some experiments, the ACE inhibitor captopril (dose) or the ARB candesartan cilexetil (dose) were given for 4 weeks in drinking water. Organs examined included heart, kidney and liver and these were compared to either untreated mice or high salt-fed mice that were treated with saline.
A high-salt diet (5% salt) model is a clinically relevant and disease-reversal model which can replicate the high salt intake by humans which is currently a growing problem in the developed countries. High salt intake induces changes in the cardiovascular system and induces remodelling and fibrosis in the heart, kidney and liver.
(§2) Mice were placed on either a normal rodent diet (0.35% NaCl) which acted as control or a high salt diet (5% sodium in food chow) for 8 weeks. After 4 weeks, mice were also treated subcutaneously (via osmotic mini-pump) with either saline or an AT2R agonist (75 pmol/kg/min subcutaneously) for 4 weeks. Mice continued to be fed a high salt diet whilst receiving these treatments.
All mice which underwent surgery were anaesthetized with Isoflurane (Isorrane) (5% induction and 2.5% maintenance) and an incision made in the midscapular region through which osmotic minipumps (Alzet model 2004, Alza Corp) were inserted for subcutaneous drug administration. The incision area was sutured with 6/0 DY silk (Dynek Pty Ltd) and antibiotic powder applied (Cicatrin, Pfizer) followed by intramuscular injection of the analgesic Cartrophen (0.1 ml of a 1.5 mg/ml stock solution; Biopharm Australia). Systolic blood pressure (SBP) was measured using non-invasive tail-cuff plethysmography apparatus (MC4000 Blood Pressure Analysis System, Hatteras Instrument Inc) before drug treatment (week 0), and then fortnightly. At the end of the 8 week treatment period mice were weighed before being killed by overdose of isoflurane inhalation and cervical dislocation.
To measure collagen deposition, frozen sections of heart, kidney or aorta (all 5 μm thickness) were air dried for 10 minutes and were brought through 3 times xylene (2 minutes each), and 3 times absolute alcohol washes before being rinsed in tap H2O for 30 seconds. Staining with an optimal concentration of picrosirius red (in this instance 0.05% picrosirius red diluted in saturated picric acid) was performed and left for an hour. Sections were then rinsed in water and differentiated in 0.01M HCl for 2 minutes, followed by dehydration via 3 times absolute alcohol washes. Then, slides were brought through 3 times xylene washes before being cover slipped according to standard histological techniques using DPX as the mounting medium. Images were taken under ×20 magnification, using bright field (Olympus, BX51) and circularized polarized light microscopy (DM IRB, Leica) while percentage of positive interstitial collagen staining per total field of view was quantified using ImageJ 1.46 software (Java, NIH), and averaged out from a total of eight views as the final percentage collagen content in a particular animal.
Immunostaining was performed on 5 μm thick transverse frozen heart sections. These sections were air dried and fixed in ice-cold acetone for approximately 15 minutes before washing with 0.01M PBS buffer (3×10 minutes). Sections were then incubated with 10% goat serum in 0.01M PBS for 30 minutes to reduce non-specific binding. If the primary antibody is raised in goat, this pre-blocked medium is substituted with 5% BSA in PBS and Triton-X. Next, blocking buffers were removed and the primary antibody to respective markers were applied overnight at room temperature based on the following dilution and origin of the antibodies: α-SMA (1:500, Abcam), Vimentin (1:500, Santa Cruz), P-IκBα (1:200, Cell Signalling), F4/80 macrophage (1:100, Serotec). […]

mouse aortae = assay: Vasorelaxation of pre-contracted mouse aortae; details: 0.1-1000 nM, pre-contracted with U46619
Text: FIG. 17: The selective AT2R ligands, β-Pro^7-Ang III and D-Arg^2-β-Pro^7-Ang III, are functional agonists in vasculature.

[5] = tested on: male FVB/N mice on high salt diet, liver; assay: High salt (5%) diet intervention model, liver; format: in vivo, mouse; details: weeks 5-8; peptides 75 pmol/kg/min s.c.; Cand 2 mg/kg/day, captopril 3 mg/kg/day
Procedure: as §1, §2
Liver sections used either picrosirius red staining or Masson's trichome staining as described above. Higher concentrations of picrosirius red were often used under polarized light microscopy. The liver was removed and sectioned with half of the liver placed in 10% formalin and the rest frozen in liquid nitrogen before being stored in ˜80° C. freezer for future use. Formalin fixed, paraffin embedded livers were sectioned at thickness of 4 μm and were stained with Masson's trichrome according to standard procedures for analysis of liver fibrosis. […] Sections were re-fixed in Bouin's solution for 1 hour at 56° C. to improve staining quality then rinsed in running tap water for 5-10 minutes to remove yellow colour. Following this, sections were stained in Weigert's iron hematoxylin working solution for 10 minutes. Rinsed in running warm tap water for 10 minutes. Washed in distilled water. Stained in Biebrich scarlet-acid fuchsin solution for 10-15 minutes.
Washed in distilled water. Differentiated in phosphomolybdic-phosphotungstic acid solution for 10-15 minutes or until collagen was no longer red. Sections were transferred directly (without rinse) to aniline blue solution and stained for 5-10 minutes. Rinsed briefly in distilled water and differentiated in 1% acetic acid solution for 2-5 minutes. Washed in distilled water. […] Mounted with DPX mounting medium. Quantification of liver fibrosis was performed using images captured with the Aperio scanner (Monash Histology Platform, Monash University), with ×5 magnification. Each liver section had 5 different fields of view photographed at this magnification. Percentage of interstitial and perivascular collagen was analysed and quantified using ImageJ 1.48 software (Java, NIH), and the percentage from 5 random fields of view were averaged for final percentage of collagen for that particular animal. All analysis of collagen expression was conducted in a blinded fashion.

Molecule: TGF-β1: pro-fibrotic agent (fibrogenic cytokine) used to stimulate human cardiac fibroblasts
AT1R mRNA expression [1]: not
AT2R mRNA expression [1]: increased

Molecule: Ang II [reference compound]
myofibroblast differentiation (α-SMA expression) ([2]; HCFs treated with Ang II): caused myofibroblast differentiation
protein expression of collagen ([2]; varying concentrations for 3 days, Western blot): dose-dependent increases
binding at AT1R (displacement of 125I-Sar1-Ile8-AngII), in words (human AT1R): readily binds
binding at AT2R (displacement of 125I-Sar1-Ile8-AngII), in words (human AT2R): readily binds

Molecule: CC[C@H](C)[C@H](NC(=O)[C@H](Cc1ccc(O)cc1)NC(=O)[C@@H](NC(=O)C[C@H](CCCNC(=N)N)NC(=O)[C@@H](N)CC(=O)O)C(C)C)C(=O)N[C@@H](Cc1c[nH]cn1)C(=O)N1CCC[C@H]1C(=O)N[C@@H](Cc1ccccc1)C(=O)O [βArg-Ang II, Asp-β-Arg-Val-Tyr-Ile-His-Pro-Phe]
TGF-β1-induced collagen production [3]: inhibited the TGF-β1-mediated pro-fibrotic phenotype

Fold AT2R selectivity (human AT2R; AT2R over AT1R, Table 3): >300,000 fold
AT2R/AT1R selectivity ratio (human AT2R; approximate or conservatively estimated): > 300,000 fold
binding at AT2R (displacement of 125I-Sar1-Ile8-AngII), in words (human AT2R): high affinity
Molecule: D-Arg-Val-Tyr-Ile-His-β-Pro-Phe [D-Arg β-Pro-Ang III]
binding at AT1R (displacement of 125I-Sar1-Ile8-AngII), in words (human AT1R; listed as D-Arg^2-β-Pro^7-Ang III): bind poorly; also recorded: did not substantially displace
myofibroblast differentiation in heart (α-SMA) ([4]; 75 pmol/kg/min s.c., weeks 5-8): fully reversed the high salt-induced myofibroblast differentiation
cardiac fibrosis (picrosirius red) ([4]; weeks 5-8 of high salt diet, peptides 75 pmol/kg/min s.c. mini-pump, Cand 2 mg/kg/day, captopril 3 mg/kg/day in drinking water): reversed established cardiac fibrosis
vasorelaxation of pre-contracted aortae (mouse aortae): concentration-dependent vasorelaxation
liver fibrosis (picrosirius red, polarized light) [5]: normalised liver fibrosis
liver steatosis (Oil Red O) [5]: significantly reduced steatosis
